The values below are quoted from earlier work in US20260021105A1, “METHOD FOR TREATING PSORIASIS” (Reviva Pharmaceuticals, Inc., priority 2023, published 2026).

One data set deals with D2-4 receptors. As to conditions: as partial agonist.
Data set [1] concerns the target serotonin transporter (SERT) (Homo sapiens, UniProt P31645).
The next data set deals with 5-HT2B/7. Particulars: as an antagonist.
The next data set deals with 5-HT2A (Homo sapiens, UniProt P28223). As to conditions: as a weak partial agonist or neutral antagonist.
The next data set concerns the target T1, 5-HT1A receptors (Homo sapiens, UniProt P08908).
T1 sequence (P08908 1-422): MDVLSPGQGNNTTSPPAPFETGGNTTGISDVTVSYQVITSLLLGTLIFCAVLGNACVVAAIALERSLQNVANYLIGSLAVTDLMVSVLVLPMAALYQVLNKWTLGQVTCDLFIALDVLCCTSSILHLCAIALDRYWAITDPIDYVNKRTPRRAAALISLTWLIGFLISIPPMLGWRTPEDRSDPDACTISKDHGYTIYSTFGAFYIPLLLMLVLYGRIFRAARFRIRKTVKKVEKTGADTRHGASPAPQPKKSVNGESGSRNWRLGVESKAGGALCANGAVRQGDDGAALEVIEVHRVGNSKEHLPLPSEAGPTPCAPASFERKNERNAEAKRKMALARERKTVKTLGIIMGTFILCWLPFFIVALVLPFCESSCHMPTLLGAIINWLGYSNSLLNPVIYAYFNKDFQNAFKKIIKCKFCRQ
As to conditions: as partial agonist.

serotonin transporter (SERT), sequence (P31645 whole entry, species assumed): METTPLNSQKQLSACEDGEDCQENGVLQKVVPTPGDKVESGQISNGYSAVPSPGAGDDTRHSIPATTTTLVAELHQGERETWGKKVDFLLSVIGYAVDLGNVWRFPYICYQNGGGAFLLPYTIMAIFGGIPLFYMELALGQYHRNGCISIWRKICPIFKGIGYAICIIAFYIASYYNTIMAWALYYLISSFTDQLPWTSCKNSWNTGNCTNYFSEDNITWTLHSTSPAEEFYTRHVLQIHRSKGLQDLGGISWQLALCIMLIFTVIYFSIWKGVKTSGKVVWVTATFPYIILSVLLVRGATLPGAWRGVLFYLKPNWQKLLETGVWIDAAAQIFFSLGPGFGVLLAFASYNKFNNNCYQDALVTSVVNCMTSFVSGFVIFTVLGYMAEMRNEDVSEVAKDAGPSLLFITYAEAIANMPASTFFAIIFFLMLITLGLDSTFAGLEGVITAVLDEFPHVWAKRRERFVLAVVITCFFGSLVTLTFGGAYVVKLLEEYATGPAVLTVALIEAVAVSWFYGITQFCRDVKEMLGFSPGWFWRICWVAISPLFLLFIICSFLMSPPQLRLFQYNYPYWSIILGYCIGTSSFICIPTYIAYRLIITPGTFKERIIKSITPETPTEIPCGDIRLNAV
5-HT2A, sequence (P28223 whole entry, species assumed): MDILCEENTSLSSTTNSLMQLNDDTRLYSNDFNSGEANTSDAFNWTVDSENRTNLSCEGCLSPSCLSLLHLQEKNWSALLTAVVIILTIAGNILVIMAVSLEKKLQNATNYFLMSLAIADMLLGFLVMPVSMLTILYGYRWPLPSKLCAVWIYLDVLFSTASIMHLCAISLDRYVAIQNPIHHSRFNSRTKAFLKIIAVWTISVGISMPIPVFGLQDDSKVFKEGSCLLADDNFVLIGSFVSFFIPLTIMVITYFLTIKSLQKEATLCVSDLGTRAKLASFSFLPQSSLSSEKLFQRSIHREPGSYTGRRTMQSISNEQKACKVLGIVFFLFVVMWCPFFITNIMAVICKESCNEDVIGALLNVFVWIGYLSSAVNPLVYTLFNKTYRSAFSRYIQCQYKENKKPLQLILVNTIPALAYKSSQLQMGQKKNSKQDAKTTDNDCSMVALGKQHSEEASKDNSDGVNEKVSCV

Turning to `O=C1COc2ccc(OCCCCN3CCN(c4cccc(Cl)c4Cl)CC3)cc2N1` [Brilaroxazine], the binding affinity entry in the data set with D2-4 receptors, in the data set on 5-HT2B/7, at 5-HT2A and at 5-HT1A receptors was “high binding affinity” throughout. For the same molecule, the affinity entry in data set [1] is reported as “moderate affinity”.
